Literature values in patent US20090312358A1, “METHOD FOR MANAGEMENT OF DIARRHEA” (TRUSTEES OF BOSTON UNIVERSITY, priority 2006, published 2009).
Where two headings read alike, the source gives them in different places.

Assays:
[1] = compared to methylnaltrexone
[2] = for elimination half-life: in vivo; for time to peak plasma levels: after oral administration
[3] = for antidiarrheal potency relative to codeine: compared to codeine
[4] = oral
[5] = repeated dosing in mice

In the case of `C[C@H]1CN(C[C@H](Cc2ccccc2)C(=O)NCC(=O)O)CC[C@@]1(C)c1cccc(O)c1` [alvimopan, Alvimopan], the “potency in reversing the effects of morphine in the gastrointestinal tract relative to methylnaltrexone” value [1] is given as “approximately 200 times”.
In the case of `COc1ccc2c3c1O[C@H]1[C@@H](O)C=C[C@H]4[C@@H](C2)N(C)CC[C@@]341` [codeine], the elimination half-life [2] is listed as roughly 3 h.
For `N#CC(CCN1CCC(C(=O)O)(c2ccccc2)CC1)(c1ccccc1)c1ccccc1` [difenoxin], the “antidiarrheal potency relative to codeine” value [3] is given as “seventy-seven”, the “antidiarrheal potency relative to diphenoxylate” value ([3]; compared to diphenoxylate) is given as “five” and the “apparent half-life of difenoxin produced by de-esterification of diphenoxylate” value ([2]; healthy volunteers) is given as “approximately 50 minutes”. For the same molecule, the elimination half-life [2] was 7 to 12 h.
For `CCOC(=O)C1(c2ccccc2)CCN(CCC(C#N)(c2ccccc2)c2ccccc2)CC1` [diphenoxylate], the “antidiarrheal potency relative to codeine” value [3] is listed as “fifteen” and the “time to peak plasma levels” value [2] is listed as “approximately 2 hours”.
In the case of `CN(C)C(=O)C(CCN1CCC(O)(c2ccc(Cl)cc2)CC1)(c1ccccc1)c1ccccc1` [loperamide, Loperamide], the “time to achieve symptomatic control of acute diarrhea” value ([4]; acute diarrhea) is given as 9 to 20 h, the “time to peak plasma levels” value [2] is given as 3 to 5 h and the elimination half-life [2] is given as 9 to 14 h. For the same molecule, the “development of tolerance to antimotility effects” value [5] was “two”.
For `C[N@+]1(CC2CC2)CC[C@]23c4c5ccc(O)c4O[C@H]2C(=O)CC[C@@]3(O)[C@H]1C5` [methylnaltrexone, Methylnaltrexone], the “time to restore normal bowel function” value ([4]; opioid bowel dysfunction) is listed as 4 to 7 h, the elimination half-life [2] is listed as 3 h and the elimination half-life ([2]; listed as Methylnaltrexone) is listed as 2 to 3 h.
In the case of `CN1CC[C@]23c4c5ccc(O)c4O[C@H]2[C@@H](O)C=C[C@H]3[C@H]1C5` [morphine], the “development of tolerance to antimotility effects” value [5] is listed as “not observed”.
For `C=C1CC[C@@]2(O)[C@H]3Cc4ccc(O)c5c4[C@@]2(CCN3CC2CC2)[C@H]1O5` [nalmefene, Nalmefene], the elimination half-life [2] is given as “approximately 11 hours”.
For `O=C1CC[C@@]2(O)[C@H]3Cc4ccc(O)c5c4[C@@]2(CCN3CC2CC2)[C@H]1O5` [naltrexone, Naltrexone], the “time to peak plasma levels” value [2] is given as “about 1 hours”.
